Data taken from US3966793A (priority 1964, dated 1976).
Entries after “also recorded” stand apart in the source; their conditions may differ. Structures can show the parent of a compound that is named as a salt.

Key:
[1] = system: mice; test: Anti-convulsant activity (anti-pentetrazole) (mice); assay type: in vivo; details: mouse, PO; pentetrazole 125 mg./kg. IP; read-out: Anti-pentetrazole, 50% effective dose
Method: 3. Anti-convulsant activity (anti-pentetrazole) (mice)
Pentetrazole, injected intraperitoneally in a dose of 125 mg./kg. produces fatal convulsions in 100% of the animals.
Certain compounds exert a protective action preventing convulsions and permitting survival.

[2] = system: rat; test: Spontaneous motor activity in the rat; assay type: in vivo; details: Rattus norvegicus, po, read-out: Spontaneous motor activity, 50% effective dose
Text: (§1) 6. Spontaneous motor activity in the rat and mouse and provoked motor activity
(§2) The effect of drugs on voluntary movements of animals can be studied statistically by methods, the details of which will not be discussed here. The mouse, which is an extremely lively animal and moves about a great deal, is particularly suitable for this type of experiment.

[3] = system: mice; test: Anti-convulsant activity (electric shock) (mice); assay type: in vivo; details: Mus musculus, po, read-out: Electric shock, 50% effective dose
Text: 4. Anti-convulsant activity (electric shock) (mice)
The test consists in determining the intensity of the electric current required to produce a fatal shock in a batch of test animals.
Certain preventively administered compounds effectively protect a certain percentage of animals subjected to an electric current of an intensity which is fatal to untreated animals.

[4] = system: rat; test: Benzedrine provoked motor activity (R); assay type: in vivo; details: PO, read-out: Benzedrine provoked motor activity, 50% effective dose
Text: as §1, §2
(§3) Moreover, this spontaneous mobility can be exacerbated by preventive administration to the animals of certain substances such as benzedrine, mescaline and ritaline.
(§4) The experimental results obtained by these methods give valuable information for clinical purposes with regard to the treatment of ambulatory psychomotor crises.

[5] = system: mice; test: Exploration test (mice); assay type: in vivo; details: Mus musculus, read-out: Exploration, 50% effective dose
Method: 5. Exploration test (mice)
This extremely simple test consists in placing a mouse at the center of a floor pierced with holes and in noting how many holes the mouse explores in 5 minutes. This test is carried out in a room in which complete silence is observed and which contains no person except the experimenter who is seated and still. It appeals to the curiosity of the animals. The doses of the compounds employed are, however, very small and considerably less than those required to impair movement. This simple test makes it possible to observe whether the compounds assayed produce a more or less pronounced lack of interest in the environment and it gives information which is interesting from the clinical point of view with regard to the treatment of anxiety and restlessness.

[6] = system: mice; test: Traction test (mice), myorelaxant activity; assay type: in vivo; details: Mus musculus, po, read-out: Traction, 50% effective dose
Text: This consists in observing when the treated animals are capable of retrieving a rod grasped by the front paws only. Inability to carry this out was interpreted as a sign of myorelaxant activity.

[7] = system: mice; test: Balance test: rotating rod (mice) (Equilibration); assay type: in vivo; details: Mus musculus, po, read-out: Equilibration, 50% effective dose
Text: 2. Balance test: rotating rod (mice)
This test consists in observing whether the treated animals are capable of maintaining their balance on a horizontal rod kept in rotation.
Numerous neuroleptic compounds or tranquilizers disturb the equilibration reflex.

[8] = system: mouse; test: Spontaneous motor activity in the mouse; assay type: in vivo; details: Mus musculus, po, read-out: Spontaneous motor activity, 50% effective dose
Text: as §1, §2

[9] = Solubility
[10] = Reaction (pH) of aqueous solution; assay type: physicochemical
[11] = system: cats; test: Aggressiveness (cat/mouse); assay type: in vivo; details: Felis catus, SC, read-out: Aggressiveness, 50% effective dose
Text: 9. Aggressiveness (cat/mouse)
In general, 75 to 80% of cats are aggressive when confronted with white mice. Psycholeptics and tranquilizers may make the cat indifferent and sometimes even amiable to the mouse. Similarly, in the case of cats that are furious and aggressive in relation to humans, diminution or suppression of the instinctive fear and establishment of a climate of confidence are observed.

[12] = system: cat; test: Morphine crisis (C); assay type: in vivo; details: Felis catus, SC, read-out: Morphine crisis, 50% effective dose
Text: In the cat, morphine produces a specific state of excitation with hallucinations which can be attenuated or suppressed by certain psycholeptic drugs.

[13] = Acute toxicity (M) LD 50; details: in vivo, mouse
[14] = system: male rat; test: Combativeness (rat); assay type: in vivo; details: for ED50: rat, PO, read-out: Combativeness, 50% effective dose
Text: It is possible to make a male rat aggressive towards another male rat enclosed in the same cage by passing an electric current of more or less high voltage through the floor of the cage.
This test, like the preceding one, can obviously give information of clinical value for the treatment of aggression diseases.

[15] = system: central nervous system; test: Pharmacodynamic / central nervous system tests taken together; assay type: in vivo
Text: A certain number of the compounds described in the present application have been studied with regard to their action on the central nervous system, as psycholeptics, myorrelaxants and tranquilizers. In addition, the acute toxicity has been determined for a number of these compounds.
It has thereby been possible to make quantitative comparisons of the activity of the different compounds for the different tests employed.

[16] = system: mouse; test: Antistrychnine activity; assay type: in vivo; details: po, read-out: Anti-strychnine, 50% effective dose
Text: 7. Antistrychnine activity

[17] = system: mouse; test: Potentiation of narcosis (M); assay type: in vivo; details: PO, read-out: Narcotic potentiation, 50% effective dose
Text: 12. Potentiation of narcosis
Most psycholeptics are hypnotics in large doses, but many of them can, in small doses, without themselves producing any hypnosis, either prolong the time of sleep obtained with a true hypnotic (for example a barbiturate) or appreciably lower the dose of barbiturate required to obtain sleep.

[18] = system: mouse; test: Benzedrine provoked motor activity (M); assay type: in vivo; details: PO, read-out: Benzedrine provoked motor activity, 50% effective dose
Text: as §1, §2, §3, §4

[19] = system: mouse; test: Morphine excitation (M); assay type: in vivo; details: PO, read-out: Morphine excitation, 50% effective dose
Text: In the mouse, the action of morphine is different but also manifested by marked central excitation.

SMILES	ED50 [1] [mg/kg]	ED50 [3] [mg/kg]	ED50 ([5]; po) [mg/kg]	ED50 [6] [mg/kg]	ED50 [7] [mg/kg]	ED50 [8] [mg/kg]	Solubility in water [9]	Reaction / pH of aqueous solution [10]	further results
CCOC(=O)C1N=C(c2ccccc2)c2cc(Cl)ccc2NC1=O (stereo not drawn) [4279 CB, 7-Chloro-3-carbethoxy-5-phenyl-2-oxo-2,3-dihydro-1H-benzo[f]-1,4-diazepine]	10	25	25	8	50	100			ED50 [2]: 100 mg/kg; ED50 [4]: > 100 mg/kg
O=C(O)C1N=C(c2ccccc2)c2cc([N+](=O)[O-])ccc2NC1=O (stereo not drawn) [4336 CB, 3-[7-nitro-5-phenyl-2-oxo-2,3-dihydro-1H-benzo[f]-1,4-diazepine]-carboxylicacid, potassium salt]	0.31	3	6	0.28	1.5	5	dissolves in water	practically neutral solution	ED50 [11]: 25 mg/kg; ED50 [12]: 25 mg/kg; ED50 [2]: 50 mg/kg; LD50 ([13]; PO): 800 mg/kg; ED50 [14]: 10 mg/kg; Effect in diminishing aggressiveness ([14]; test for combativeness): marked effect in diminishing aggressiveness; Activity in different tests, especially as myorelaxants and anticonvulsants ([15]; different tests of Table VI): extremely active in different tests; Effect on the faculties of displacement ([15]; in vivo): less effect on the faculties of displacement; ED50 [16]: 25 mg/kg
O=C(O)C1N=C(c2ccccc2)c2ccccc2NC1=O.[K+].[K+].[OH-].[OH-] (stereo not drawn) [4337 CB, 2,3-Dihydro-2-oxo-5-phenyl-1H-benzo[f]-1,4-diazepine-3-carboxylic acid, monopotassium salt, monopotassium hydroxide]	> 10	> 10	> 10	5	> 10		completely soluble in water	strongly alkaline in reaction	
O=C(O)C1N=C(c2ccccc2)c2ccccc2NC1=O (stereo not drawn) [4338 CB, 3-[5-Phenyl-2-oxo-2,3-dihydro-1H-benzo[f]-1,4-diazepine]-carboxylic acid, potassium salt]	> 10	> 10		5	> 10	10	dissolves in water	substantially neutral reaction	ED50 ([5]; route not given): > 10 mg/kg
Cc1ccc2c(c1)C(c1ccccc1)=NC(C(=O)O)C(=O)N2.[K+].[K+].[OH-].[OH-] (stereo not drawn) [4339 CB, 7-Methyl-2,3-dihydro-2-oxo-5-phenyl-1H-benzo[f]-1,4-diazepine-3-carboxylic acid, monopotassium salt, monopotassium hydroxide]	> 10	> 10		> 10	> 10	10	completely soluble in water		
NC(=O)C(N=C(c1ccccc1)c1cc(Cl)ccc1N)C(=O)O (stereo not drawn) [4349 CB, Potassium salt of 4-phenyl-4-(2-amino-5-chlorophenyl)-2-carbamoyl-3-aza-3-butenoic acid]	> 10	> 10	10	10	> 10	10	completely soluble in water		
CN1C(=O)C(C(=O)O)N=C(c2ccccc2)c2cc(Cl)ccc21.[K+].[K+].[OH-].[OH-] (stereo not drawn) [4350 CB, 7-Chloro-1-methyl-2,3-dihydro-2-oxo-5-phenyl-1H-benzo[f]-1,4-diazepine-3-carboxylic acid, monopotassium salt, monopotassium hydroxide]	7.5	20	10	5	> 10	> 20	very soluble in water; also recorded: completely soluble in water	strongly alkaline in reaction	
CCN(CC)CCNC(=O)C1N=C(c2ccccc2)c2cc(Cl)ccc2NC1=O (stereo not drawn) [4369 CB, 7-Chloro-3-(2-diethylamino-ethylaminocarbonyl)-5-phenyl-2-oxo-2,3-dihydro-1H-benzo[f]-1,4-diazepine]	> 50	> 20	> 20	> 25	> 50	> 10			
Nc1ccc2c(c1)C(c1ccccc1)=NC(C(=O)O)C(=O)N2.[K+].[K+].[OH-].[OH-] (stereo not drawn) [4371 CB, 7-Amino-2,3-dihydro-2-oxo-5-phenyl-1H-benzo[f]-1,4-diazepine-3-carboxylic acid, monopotassium salt, monopotassium hydroxide]							completely soluble in water	strongly alkaline reaction	
O=C(O)C1N=C(c2ccccc2)c2cc(Cl)ccc2NC1=O (stereo not drawn) [4372 CB, 7-Chloro-2,3-dihydro-2-oxo-5-phenyl-1H-benzo[f]-1,4-diazepine-3-carboxylic acid, calcium salt]							sparingly soluble in water		
Cc1ccc2c(c1)C(c1ccccc1)=NC(C(=O)O)C(=O)N2 (stereo not drawn) [4373 CB, 3-[7-methyl-5-phenyl-2-oxo-2,3-dihydro-1H-benzo[f]-1,4-diazepine]-carboxylic acid, potassium salt]							completely soluble in water		
CNC1=Nc2ccc(Cl)cc2C(c2ccccc2)=[N+]([O-])C1 [Chlordiazepoxide, reference compound]	5	17	20	3	13				ED50 [12]: 100 mg/kg; ED50 [4]: > 100 mg/kg; LD50 ([13]; IP): 80 mg/kg; LD50 ([13]; PO): 200 mg/kg; ED50 [14]: 100 mg/kg
CN1C(=O)CN=C(c2ccccc2)c2cc(Cl)ccc21 [Diazepame, 7-Chloro-1-methyl-5-phenyl-2-oxo-2,3-dihydro-1H-benzo[f]-1,4-diazepine, reference compound]	1.7	5	6	1.6	4.4	5			ED50 [17]: 2.5 mg/kg; ED50 [18]: > 20 mg/kg; ED50 [11]: 25 mg/kg; ED50 [12]: 25 mg/kg; ED50 [19]: 25 mg/kg; ED50 [2]: 25 mg/kg; ED50 [4]: 100 mg/kg; ED50 [14]: 25 mg/kg; ED50 [16]: > 50 mg/kg
